Assay results from patent US6727206B2, “Substituted aryl ketones” (Bayer Aktiengesellschaft, priority 1999, dated 2004).
Read-outs that look alike come from different tables or passages of the source.

Columns and labels:
[1] = logP determination by HPLC on reversed-phase column (C 18), EEC directive 79/831 Annex V.A8; assay type: physicochemical; conditions: for logP: Table 1; label a): acidic range
Experimental: Temperature: 43° C. (a) Mobile phases for the determination in the acidic range: 0.1% aqueous phosphoric acid, acetonitrile; linear gradient of 10% acetonitrile to 90% acetonitrile—the corresponding data in Table 1 are labelled ^a). (b) Mobile phases for the determination in the neutral range: 0.01 molar aqueous phosphate buffer solution, acetonitrile, linear gradient from 10% acetonitrile to 90% acetonitrile—the corresponding data in Table 1 are labelled ^b).

weeds [2] = experiment: Pre-emergence test, activity against weeds; assay type: in vivo; conditions: soil sprayed 24 hours after sowing, rated after three weeks
Excerpt: (§1) Seeds of the test plants are sown in normal soil.
(§2) After three weeks, the degree of damage to the plants is rated in % damage in comparison to the development of the untreated control.

[3] = test system: crop plants, such as cotton, maize, soya and wheat; experiment: Pre-emergence test, tolerance by crop plants; assay type: in vivo; conditions: rated after three weeks
Excerpt: as §1, §2

weeds [4] = experiment: Post-emergence test, activity against weeds; assay type: in vivo; conditions: test plants of 5 to 15 cm sprayed, rated after three weeks
Excerpt: as §2

[5] = test system: crop plants, such as maize; experiment: Post-emergence test, tolerance by crop plants; assay type: in vivo; conditions: rated after three weeks
Excerpt: as §2

[6] = 0.1% aqueous phosphoric acid/acetonitrile gradient, 43° C.

Row | Structure (SMILES) | logP [1, 6] | also measured
1 | Cn1c(C(S)c2c(Cl)ccc(C(=O)C3C(=O)CCCC3=O)c2Cl)n[nH]c1=O (stereo not shown) |  | melting point: 187 °C
2 | CCn1ncc(C(=O)c2ccc(Sc3n[nH]c(=O)n3C)cc2Cl)c1O |  | melting point: 216 °C
3 | Cn1c(Sc2cc(C(F)(F)F)ccc2C(=O)C2C(=O)CCCC2=O)n[nH]c1=O [Example 1, 2-[2-[(4-methyl-5-oxo-4,5-dihydro-1H-1,2,4-triazol-3-yl)-sulphanyl]-4-trifluoromethyl-benzoyl]-1,3-cyclohexanedione] |  | chromatographic logP ([1]; reversed-phase HPLC column (C 18), Example 1, mobile phase range not labelled, read-out: log P): 2; activity against weeds (degree of damage) (weeds [2]): strong activity; tolerance by crop plants [3]: tolerated well; activity against weeds (degree of damage) (weeds [4]): strong activity; tolerance by crop plants [5]: tolerated well
4 | Cn1nc(Sc2ccc(C(=O)C3C(=O)CCCC3=O)c(Cl)c2)n(C)c1=O [Example 6] | logP = 2.08^a) | 
5 | Cc1nn(C)c(O)c1C(=O)c1ccc(Sc2nn(C)c(=O)n2C)cc1Cl [Example 9] | logP = 1.34^a) | 
6 | Cn1nc(S(=O)(=O)c2ccc(C(=O)C3C(=O)CCCC3=O)c(Cl)c2)n(C)c1=O [Example 13] | logP = 2.09^a) | 
7 | Cn1c(S(=O)(=O)c2ccc(C(=O)C3C(=O)CCCC3=O)c(Cl)c2)n[nH]c1=O [Example 14] | logP = 1.88^a) | 
8 | Cn1nc(Sc2cc(C(F)(F)F)ccc2C(=O)C2C(=O)CCCC2=O)n(C)c1=O [Example 15] |  | activity against weeds (degree of damage) (weeds [2]): strong activity; tolerance by crop plants [3]: tolerated well; activity against weeds (degree of damage) (weeds [4]): strong activity; tolerance by crop plants [5]: tolerated well
9 | Cn1nc(SCc2c(Cl)ccc(C(=O)C3C(=O)CCCC3=O)c2Cl)n(C)c1=O [Example 20] | logP = 2.24^a) | 
10 | Cn1c([S+]([O-])Cc2c(Cl)ccc(C(=O)C3C(=O)CCCC3=O)c2Cl)n[nH]c1=O (stereo not shown) [Example 22, 2-[2,4-dichloro-3-[(4-methyl-5-oxo-4,5-dihydro-1H-1,2,4-triazol-3-yl)-sulphinylmethyl]-benizoyl]-1,3-cyclohexanedione] |  | chromatographic logP ([1]; reversed-phase HPLC column (C 18); Table 1; label a): acidic range, 0.1% aqueous phosphoric acid/acetonitrile gradient, 43° C.): 1.6
11 | Cn1nc(S(=O)(=O)Cc2c(Cl)ccc(C(=O)C3C(=O)CCCC3=O)c2Cl)n(C)c1=O [Example 23] | logP = 2.09^a) | 
12 | Cn1c(S(=O)(=O)Cc2c(Cl)ccc(C(=O)C3C(=O)CCCC3=O)c2Cl)n[nH]c1=O [Example 25] | logP = 1.87^a) | 
13 | Cn1c([S+]([O-])Cc2c(Cl)ccc(C(=O)C3C(=O)CCCC3=O)c2Cl)n[nH]c1=O (stereo not shown) [Example 28] | logP = 1.61^a) | 
14 | CCn1nc(Sc2ccc(C(=O)C3C(=O)CCCC3=O)c(Cl)c2)n(C)c1=O [Example 47] | logP = 2.34^a) | 
15 | CCCn1nc(Sc2ccc(C(=O)C3C(=O)CCCC3=O)c(Cl)c2)n(C)c1=O [Example 49] | logP = 2.63^a) | 
16 | C=CCn1nc(Sc2ccc(C(=O)C3C(=O)CCCC3=O)c(Cl)c2)n(C)c1=O [Example 51] | logP = 2.47^a) | 
17 | C#CCn1nc(Sc2ccc(C(=O)C3C(=O)CCCC3=O)c(Cl)c2)n(C)c1=O [Example 53] | logP = 2.37^a) | 
18 | Cn1c(Sc2ccc(C(=O)C3C(=O)CCCC3=O)c(Cl)c2)nn(CC2CC2)c1=O [Example 55] | logP = 2.72^a) | 
19 | Cn1c(Sc2ccc(C(=O)C3C(=O)CCCC3=O)c(Cl)c2)nn(Cc2ccccc2)c1=O [Example 57] | logP = 3.04^a) | 
20 | Cn1nc(S(=O)(=O)c2cc(C(F)(F)F)ccc2C(=O)C2C(=O)CCCC2=O)n(C)c1=O [Example 68] | logP = 1.85^a) | 
21 | CCn1ncc(C(=O)c2ccc(C(F)(F)F)cc2S(=O)(=O)c2nn(C)c(=O)n2C)c1O [Example 69] | logP = 1.72^a) | 
22 | Cn1nc([S+]([O-])Cc2cc(C(F)(F)F)ccc2C(=O)C2C(=O)CCCC2=O)n(C)c1=O (stereo not shown) [Example 70] | logP = 1.95^a) | 
23 | CCn1ncc(C(=O)c2ccc(C(F)(F)F)cc2C[S+]([O-])c2nn(C)c(=O)n2C)c1O (stereo not shown) [Example 71] | logP = 1.77^a) | 
24 | Cn1nc(SCc2cc(C(F)(F)F)ccc2C(=O)O)n(C)c1=O [II-9, 2-[(4,5-dihydro-1,4-dimethyl-5-oxo-1H-1,2,4-triazol-3-yl)-sulphanylmethyl]-4-trifluoromethyl-benzoic acid] |  | chromatographic logP ([1]; reversed-phase HPLC column (C 18), Table 2 (starting materials of formula II); label a): acidic range): 1.94
